From ChEMBL document CHEMBL1138209, “Scaffold of the cyclooxygenase-2 (COX-2) inhibitor carprofen provides Alzheimer gamma-secretase modulators” (J Med Chem, 2006)
Activity calls are given as the source filed them. The calls are words filed in the database; no cut-off is given here.

Legend:
[1] = Inhibition of beta amyloid protein 40 in human H4 cells overexpressing APP695; assay type: cell-based
H4 [2] = assay: Increase in beta amyloid protein 38 in human H4 cells overexpressing APP695 at 200 uM; assay type: cell-based
[3] = Inhibition of beta amyloid protein 42 in human H4 cells overexpressing APP695; assay type: cell-based
[4] = Inhibition of beta amyloid protein 38 in human H4 cells overexpressing APP695; assay type: cell-based
H4 [5] = assay: Increase in beta amyloid protein 38 in human H4 cells overexpressing APP695 at 40 uM; assay type: cell-based
H4 [6] = assay: Increase in beta amyloid protein 38 in human H4 cells overexpressing APP695 at 160 uM; assay type: cell-based
H4 [7] = assay: Cytotoxicity against human H4 cells at 40 uM; assay type: cell-based; details: h4, 40 µM
H4 [8] = assay: Increase in beta amyloid protein 38 in human H4 cells overexpressing APP695 at 150 uM; assay type: cell-based
[9] = biological target: Prostaglandin G/H synthase 1 (Homo sapiens) (UniProt P23219); assay: Activity at COX1 at 10 uM
Sequence of Prostaglandin G/H synthase 1 (Homo sapiens) (P23219 whole entry): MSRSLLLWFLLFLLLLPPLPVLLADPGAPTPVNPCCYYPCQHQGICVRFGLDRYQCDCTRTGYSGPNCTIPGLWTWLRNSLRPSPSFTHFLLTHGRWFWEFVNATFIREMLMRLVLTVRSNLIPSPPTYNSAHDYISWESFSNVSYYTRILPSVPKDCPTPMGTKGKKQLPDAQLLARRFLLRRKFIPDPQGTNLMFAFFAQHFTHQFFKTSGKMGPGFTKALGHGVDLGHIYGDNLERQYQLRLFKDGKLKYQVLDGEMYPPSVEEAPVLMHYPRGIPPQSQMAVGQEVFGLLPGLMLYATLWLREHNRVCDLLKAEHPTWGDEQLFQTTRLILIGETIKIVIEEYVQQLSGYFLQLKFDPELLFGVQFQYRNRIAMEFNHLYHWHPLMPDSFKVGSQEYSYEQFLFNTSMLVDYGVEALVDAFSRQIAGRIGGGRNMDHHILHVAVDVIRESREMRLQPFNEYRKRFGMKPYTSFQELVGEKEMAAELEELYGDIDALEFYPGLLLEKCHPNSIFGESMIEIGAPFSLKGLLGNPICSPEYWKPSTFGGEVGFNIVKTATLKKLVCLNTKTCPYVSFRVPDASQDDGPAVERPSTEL

IC50 [1] [µM]	IC50 [3] [µM]	SMILES	Activity (H4 [5])	also measured
> 30	11	CC(C(=O)O)c1ccc2c3cc(Cl)ccc3n(S(=O)(=O)c3cc(C(F)(F)F)cc(C(F)(F)F)c3)c2c1 (configuration not stated)		Activity (H4 [2]): inactive
> 40	3	CCCCCCCCCn1c2ccc(Cl)cc2c2ccc(C(C)C(=O)O)cc21 (configuration not stated)		EC50 [4]: 8.1 µM
	> 40	CC(C(=O)O)c1ccc2c3cc(Cl)ccc3n(S(=O)(=O)c3ccccc3)c2c1 (configuration not stated)	inactive	
133	76	CC(C(=O)O)c1ccc2c(c1)[nH]c1ccc(Cl)cc12 (racemic) [CARPROFEN]		Activity (H4 [6]): inactive; IC50 [4]: 78 µM
> 40	22	CC(C(=O)O)c1ccc2c3cc(Cl)ccc3n(Cc3cccc([N+](=O)[O-])c3)c2c1 (configuration not stated)	inactive	
> 20	8.5	CC(C)c1cc(C(C)C)c(S(=O)(=O)n2c3ccc(Cl)cc3c3ccc(C(C)C(=O)O)cc32)c(C(C)C)c1 (configuration not stated)		Activity (H4 [7]): Toxic; EC50 [4]: 9.3 µM
	39	CC(C(=O)O)c1ccc2c3cc(Cl)ccc3n(S(=O)(=O)c3cccc([N+](=O)[O-])c3)c2c1 (configuration not stated)	inactive	
	> 40	CC(C(=O)O)c1ccc2c3cc(Cl)ccc3n(S(=O)(=O)c3cc(F)cc(F)c3)c2c1 (configuration not stated)	inactive	
> 40	39	COc1cccc(Cn2c3ccc(Cl)cc3c3ccc(C(C)C(=O)O)cc32)c1 (configuration not stated)	inactive	
> 150	88	CC(C(=O)O)c1ccc2c3cc(Cl)ccc3n(Cc3cccc(NC(=O)CCCC[C@@H]4SC[C@@H]5NC(=O)N[C@@H]54)c3)c2c1 (some centres not stated)		Activity (H4 [7]): Toxic; Activity (H4 [8]): inactive
	40	CC(C(=O)O)c1ccc2c3cc(Cl)ccc3n(S(=O)(=O)c3ccccc3Br)c2c1 (configuration not stated)	inactive	
> 40	2.9	CCCCCCCCCCn1c2ccc(Cl)cc2c2ccc(C(C)C(=O)O)cc21 (configuration not stated)		Activity [9]: inactive; EC50 [4]: 5.8 µM
> 40	7.5	CC(C(=O)O)c1ccc2c3cc(Cl)ccc3n(Cc3cccc(OC(F)(F)F)c3)c2c1 (configuration not stated)	inactive	
	> 40	CC(C(=O)O)c1ccc2c3cc(Cl)ccc3n(S(=O)(=O)c3ccc(Br)cc3)c2c1 (configuration not stated)	inactive	
	37	CC(C(=O)O)c1ccc2c3cc(Cl)ccc3n(S(=O)(=O)c3ccc(-c4ccccc4)cc3)c2c1 (configuration not stated)	inactive	
> 100	56	Cc1ccc(S(=O)(=O)n2c3ccc(Cl)cc3c3ccc(C(C)C(=O)O)cc32)cc1 (configuration not stated)		Activity (H4 [2]): inactive; EC50 [4]: 43 µM
> 40	> 40	CCCc1ccc(S(=O)(=O)n2c3ccc(Cl)cc3c3ccc(C(C)C(=O)O)cc32)cc1 (configuration not stated)	inactive	
> 40	25	CCCCCCCCS(=O)(=O)n1c2ccc(Cl)cc2c2ccc(C(C)C(=O)O)cc21 (configuration not stated)	inactive	
	> 40	CC(C(=O)O)c1ccc2c3cc(Cl)ccc3n(S(=O)(=O)c3ccc(Cl)cc3)c2c1 (configuration not stated)	inactive	
> 40	6.9	CCCCCCCCn1c2ccc(Cl)cc2c2ccc(C(C)C(=O)O)cc21 (configuration not stated)	inactive	
	> 40	CC(C(=O)O)c1ccc2c3cc(Cl)ccc3n(S(=O)(=O)c3cccc(F)c3)c2c1 (configuration not stated)	inactive	
	> 40	CC(C(=O)O)c1ccc2c3cc(Cl)ccc3n(S(=O)(=O)c3cccc(Cl)c3)c2c1 (configuration not stated)	inactive	
	> 40	CC(C(=O)O)c1ccc2c3cc(Cl)ccc3n(S(=O)(=O)c3ccc([N+](=O)[O-])cc3)c2c1 (configuration not stated)	inactive	
	> 40	CC(C(=O)O)c1ccc2c3cc(Cl)ccc3n(S(=O)(=O)c3ccc(C#N)cc3)c2c1 (configuration not stated)	inactive	
	> 40	CC(C(=O)O)c1ccc2c3cc(Cl)ccc3n(S(=O)(=O)c3cc(Br)c(Br)s3)c2c1 (configuration not stated)	inactive	
	> 40	CC(C(=O)O)c1ccc2c3cc(Cl)ccc3n(S(=O)(=O)c3ccc(F)cc3)c2c1 (configuration not stated)	inactive	
	> 40	CC(C(=O)O)c1ccc2c3cc(Cl)ccc3n(S(=O)(=O)c3ccccc3F)c2c1 (configuration not stated)	inactive	
